pEC50: −log10 of the molar value.
Columns and labels:
[1] = (§1) Transient Replicon Assay: In a transient set-up, a Huh-7 lunet hepatoma cell line was transiently transfected with an autonomously replicating RNA encoding a bi-cistronic expression construct. This construct comprises a firefly luciferase reporter gene preceding the NS3-NS5B subgenomic region of HCV (genotype 1a H77 or 1b Con1). Translation of the HCV subgenomic region is mediated by an internal ribosome entry site of encephalomyocarditis virus. The construct is furthermore flanked by 5' and 3' untranslated regions of HCV (genotype 1a H77 or 1b Con 1, respectively), which allow for replication of the RNA. In addition to the wild-type constructs, site-directed mutations were introduced into the transient HCV genotype 1b replicon in the gene encoding for the non-structural protein 5A (NS5A). More precisely, amino acid residues 28, 30, 31 and 93 in NS5A were independently altered. Cells were plated in 384 well plates in the presence of test and control compounds, which were added in various concentrations. Following an incubation of two days, replication of the HCV subgenomic replicon RNA was measured by assaying luciferase activity (using standard luciferase assay substrates and reagents and a Perkin Elmer ViewLux™ ultraHTS microplate imager). HCV subgenomic replicon containing cells in the control cultures have high luciferase expression in the absence of any inhibitor. The inhibitory activity of the compound was monitored, enabling a dose-response curve for each test compound.; format: cell-based
[2] = Stable Replicon Assay: The assay utilized the stably transfected cell line Huh-7 luc/neo (hereafter referred to as Huh-Luc). This cell line harbors an RNA encoding a bicistronic expression construct comprising the wild type NS3-NS5B regions of HCV type 1b translated from an Internal Ribosome Entry Site (IRES) from encephalomyocarditis virus (EMCV), preceded by a reporter portion (FfL-luciferase), and a selectable marker portion (neoR, neomycine phosphotransferase). The construct is flanked by 5' and 3' NTRs (non-translated regions) from HCV type 1b. Continued culture of the replicon cells in the presence of G418 (neoR) is dependent on the replication of the HCV RNA. The stably transfected replicon cells that replicate HCV RNA autonomously and to high levels, encoding inter alia luciferase, were used for screening the antiviral compounds. The replicon cells were plated in 384 well plates in the presence of the test and control compounds which were added in various concentrations. Following an incubation of three days, HCV replication was measured by assaying luciferase activity (using standard luciferase assay substrates and reagents and a Perkin Elmer ViewLux™ ultraHTS microplate imager). Replicon cells in the control cultures have high luciferase expression in the absence of any inhibitor. The inhibitory activity of the compound was monitored on the Huh-Luc cells, enabling a dose-response curve for each test compound.
[3] = target: Nonstructural protein 5A (Hepatitis C virus, UniProt Q5L478); experiment: as §1; format: cell-based

CC[C@H](C)[C@H](NC(=O)OC)C(=O)N1CCC[C@H]1c1nc2cc(-c3ccc4cc(-c5cnc([C@@H]6CCCN6C(=O)[C@@H](NC(=O)OC)[C@@H](C)OC)[nH]5)ccc4c3)ccc2[nH]1
pEC50 [1]: 11.40
pEC50 [2]: 11.52

CC[C@H](C)[C@H](NC(=O)OC)C(=O)N1CCC[C@H]1c1nc2ccc(-c3ccc4cc(-c5cnc([C@@H]6CCCN6C(=O)[C@@H](NC(=O)OC)C(C)C)[nH]5)ccc4c3)cc2[nH]1
pEC50 [3]: > 10.89

COC(=O)N[C@H](C(=O)N1CCC[C@H]1c1nc2ccc(-c3ccc4cc(-c5cnc([C@@H]6CCCN6C(=O)[C@@H](NC(=O)OC)[C@@H](C)OC)[nH]5)ccc4c3)cc2[nH]1)C(C)C
pEC50 [2]: 11.22

COC(=O)N[C@H](C(=O)N1CCC[C@H]1c1ncc(-c2ccc3cc(-c4ccc5nc([C@@H]6CCCN6C(=O)[C@@H](NC(=O)OC)[C@@H](C)OC)[nH]c5c4)ccc3c2)[nH]1)C(C)C
pEC50 [3]: > 10.77

CC[C@@H](C)[C@H](NC(=O)OC)C(=O)N1CCC[C@H]1c1ncc(-c2ccc3cc(-c4ccc5nc([C@@H]6CCCN6C(=O)[C@@H](NC(=O)OC)[C@H](C)CC)[nH]c5c4)ccc3c2)[nH]1
pEC50 [1]: 11.70
pEC50 [2]: 11.52
